How the values were obtained:
[1] = test system: nascent TERRA transcripts; test: Nascent RNA capture (EU, Click-iT) and RT-qPCR for TERRA in LOX cells; type: cell-based, human; details: 2 μM, 48 h, then EU 4 h
Protocol: Mei et al, 2020 TERRA Requires TRF2 GAR Domain
Nascent RNA analysis was performed as described previously 2 by the use of Click-iT Nascent RNA capture kit (Life Technologies) with some modifications. Briefly, LOX cells were treated with 2 µM of chemicals, or LOX TRF2DB cells were induced with 1 µg/ml of doxycycline for 48 hrs, and then treated cells were pulse labeled 0.2 mM EU for additional 4 hrs. Total RNA was prepared and biotinylated by Click reaction. Nascent RNA was purified by using Streptavidin T1 magnetic beads and was subject to cDNA synthesis using SuperScript VILO cDNA synthesis kit (Life Technologies). Relative Nascent RNA expression was determined using DCT methods relative to control gene U1 or Actin. Primer sequences used in qPCR analysis of 10q, 13q, XYq, and 18q TERRA were described previously 2.
Reference (Supplmentary Methods)
1 Deng, Z., Norseen, J., Wiedmer, A., Riethman, H. & Lieberman, P. M. TERRA RNA binding to TRF2 facilitates heterochromatin formation and ORC recruitment at telomeres. Mol […]
2 Deng, Z. et al. HSV-1 remodels host telomeres to facilitate viral replication. Cell Rep 9,
3 Deng, Z. et al. A role for CTCF and cohesin in subtelomere chromatin organization, TERRA transcription, and telomere end protection. EMBO J 31, 4165-4178, […]

TeloDNA and TRF2 complex = test: FP inhibition assay, TRF2 GAR binding to TeloDNA; details: 10 nM peptide, 5 μM oligo
Protocol: All the nucleic acids, peptides and chemicals were dissolved in buffer containing 20 mM HEPES pH7.5, 150 mM salt (KCl, NaCl, LiCl) at the stock concentration of 1 mM. For peptide and nucleic acid interactions, 25μL of each nucleic acids with a sequential twofold dilutions starting from 50 μM was added into each well of 96-well plate followed by adding 25μL of 10 nM FITC labeled TRF2 peptide. For compounds and nucleic acid interactions, 20μL of each compounds with a sequential twofold dilutions starting from 50 μM were added into each well of 96-well plate followed by adding 5μL of 20 ng/mL tRNA and 25μL of 10 nM FAM labeled nucleic acids. For inhibition assay, 5μL FITC labeled TRF2 GAR peptide (10 nM final concentration) and 10 μL oligos (5 μM final concentration) were mixed, followed by adding 5μL of each compound with a sequential twofold dilutions starting from 50 μM into each well of 384-well plate. All components were mixed thoroughly, and the plate was incubated at room temperature for 1 h before placing in an Envision Plate Reader for reading at 495/520 nm. All data curves were fitted using Prism 8.0.

[2] = test system: TERRA (unlabelled) (RNA, G4) UUAGGGUUAGGGUUAGGGUUAGGG; test: fluorescence polarization, displacement of TRF2 GAR peptide; details: 150 mM KCl, NaCl or LiCl (salt not specified); 20 mM HEPES; 20 mM HEPES pH 7.5, room temperature; FITC-TRF2 GAR peptide 10 nM displaced; 5 μM oligo
TERRA in U2OS cells = test: TERRA levels by RNA dot blot in U2OS cells; type: cell-based; details: ALT positive U2OS cells, 2 μM, 2 days
Protocol: LOX human melanoma cells[74],[101] were grown in complete RPMI (high glucose RPMI supplemented with 10% heat inactivated FBS, 100 I.U./mL Penicillin, and 100 μg/mL Streptomycin (Corning)). LOX cells inducibly expressing TRF2∆B protein were generated by lentiviral transduction. Cells were infected with lentiviral particles containing pInducer10L and pIND-MYC-TRF2∆B, and single cell clonal colonies were selected in 1 µg/mL puromycin. N-terminally Myc-tagged TRF2∆B protein was expressed in stable lines by induction with 1 µg/ml doxycycline at indicated days. Due to the instability of doxycycline in the culture, the culture medium will be replaced with fresh doxycycline every 2 days. […]
Homogenous Time Resolved Fluorescence (HTRF) assay
All material including peptide, nucleic acids and compounds were dissolved in buffer containing 20mM HEPES pH7.5 150mM KCl. […] The plate was incubated at room temperature for 30 minutes, following by adding 5µL of streptavidin-Tb-cryptate (Cisbio, PerkinElmer) and the plate was then incubated at room temperature for another 30 minutes before measured by EnVision plate reader (330/520 nm). […] The curves were analyzed using Prism 8.0. […]
Total RNA was isolated as previously described by using TRIzol reagent (Invitrogen) 1. […] RNA concentration was determined by Nanodrop-2000 (ThermoFisher). […]

[3] = test system: TERRA (HTRF assay) (RNA, G4) UUAGGGUUAGGGUUAGGGUUAGGG; test: HTRF, disruption of TRF2 peptide complex; details: TRF2 GAR peptide displaced

SMILES | nascent TERRA transcripts from chromosomes 10q, XYq and 18q [1] | IC50 (TeloDNA and TRF2 complex) [µM] | IC50 [2] [µM] | TERRA levels in U2OS cells (TERRA in U2OS cells) | IC50 [3] [µM]
CN(C)c1ccc(Nc2c3ccc(NC(=O)CCN4CCCC4)cc3nc3cc(NC(=O)CCN4CCCC4)ccc23)cc1 [BRACO-19] | significant reduction (~ two fold) | 0.04 | 0.24 | reduced TERRA levels | –
CCc1c(C)c2cc3nc(cc4nc(cc5c(CC)c(C)c(cc1[nH]2)n5C)C(C)=C4CCC(=O)O)C(CCC(=O)O)=C3C [NMM, N-methyl mesoporphyrin IX] | significant reduction (~ two fold) | 1 | 0.42 | reduced TERRA levels | 0.0017 ± 0.0008
